Experimental data: patent US5891895A, “Hydroxypyridine derivatives their production and use” (Takeda Chemical Industries, Ltd., priority 1996, dated 1999)

How the values were obtained:
rat aorta preparations [1] = assay: Vasorelaxant effect on rat aorta preparations: constriction induced by potassium chloride (KCl); assay type: cell-based, Male Wistar rats; conditions: KCl (80 mM), read-out: constriction inhibitory ratio
Experimental: (§1) Method: Male Wistar rats (10 to 13 weeks old) were used. After exsanguination, the aorta was isolated. Aortic rings (5 mm long) were prepared and then suspended in a bath filled with oxygenated (95% O2 -5% CO2) Krebs solution (36° C.). One end of each ring preparation was fixed and the other end was connected to a tension transducer (Nihon Kohden), and tension of the ring preparation was measured. After an equilibration period of one hour, TEA (30-45 mM) and BaCl2 (0.3 mM) were added in the bath to produce vasoconstriction. After the contractions reached a steady state (after about 15 min.), each test compound was added and its relaxant effect was investigated.
(§2) Vasorelaxant effect on rat aorta preparations
Effect on constriction induced by potassium chloride (KCl)
Method: This experiment was performed using KCl (80 mM) instead of TEA and BaCl2 used in Experimental Example 1. Apart from this, the procedures were substantially the same as in Experimental Example 1.

coronary blood flow = assay: Coronary blood flow-increasing effect in anesthetized dogs (administration into the coronary artery); assay type: in vivo; conditions: 30 μg/dog into the coronary artery, anesthetized beagle dogs
Experimental: Coronary blood flow-increasing effect in anesthetized dogs (administration into the coronary artery)
Method: After beagle dogs (10 to 12 kg) were anesthetized with pentobarbital, the chest was opened under artificial respiration. A bypass fitted with an electromagnetic flowmeter (Nihon Kohden) was prepared between the left coronary artery and the left carotid artery, and the coronary blood flow was measured. Each test compound was dissolved in 50% polyethylene glycol in physiological saline, 50% DMF in physiological saline or DMF for administration (30 μg/dog) into the coronary artery through the bypass.
Results: The greatest percentage change (% of basal flow) and duration (expressed as half-time (T1/2) in which the effect is reduced to half) are shown in Table 14.

rat aorta preparations [2] = assay: Vasorelaxant effect on rat aorta preparations: contractions induced by tetraethyl ammonium chloride (TEA) and barium chloride (BaCl2); assay type: cell-based, Male Wistar rats; conditions: TEA (30-45 mM) and BaCl2 (0.3 mM), read-out: constriction inhibitory ratio
Experimental: as §2
Effects on contractions induced by tetraethyl ammonium chloride (TEA) and barium chloride (BaCl2)
as §1

[3] = test system: normotensive rats (Wistar-Kyoto rats (WKY)); assay: Antihypertensive effect in rats (WKY); assay type: in vivo; conditions: 0.3 mg/kg orally
Experimental: (§3) Antihypertensive effect in rats
(§4) Method: 23 to 27-week-old spontaneously hypertensive rats (SHR) or normotensive rats (Wistar-Kyoto rats (WKY)) were anesthetized with pentobarbital (60 mg/kg, i.p.). A polyethylene catheter filled with physiological saline containing 20% heparin was inserted into the left femoral artery and left in place. The other end of the catheter was tunneled subcutaneously to the back and fixed there. After one night, the animals were used in the experiment in the fasting state. Blood pressure was recorded on an ink-writing recorder through the arterial catheter via a pressure transducer. Blood pressure was estimated from flood pressure waves recorded on the recorder. After the blood pressure was stabilized, the test compounds (vehicle (0.5% methylcellulose, […]) or Compound 16 (0.3 mg/kg)) were administered orally.
(§5) Results: The changes in blood pressure and heart rate after administration of the test compounds are given as % of pretreatment basal values (percentage changes) in FIGS. 1 and 2. All values are presented as means±standard error.

[4] = test system: spontaneously hypertensive rats (SHR); assay: Antihypertensive effect in rats (SHR); assay type: in vivo; conditions: 0.3 mg/kg orally
Experimental: as §3, §4, §5

Row | SMILES | inhibition at 0.1 µM (rat aorta preparations [1]) | inhibition at 0.3 µM (rat aorta preparations [1]) | duration (T1/2), half-time in which the effect is reduced to half (coronary blood flow) | greatest percentage change (coronary blood flow) | inhibition at 0.1 µM (rat aorta preparations [2]) | inhibition at 0.3 µM (rat aorta preparations [2]) | inhibition at 1 µM (rat aorta preparations [1]) | inhibition at 1 µM (rat aorta preparations [2]) | effect on blood pressure [3] | effect on heart rate [3] | duration of antihypertensive effect [4] | effect on heart rate [4] | onset of antihypertensive effect after administration [4] | greatest change in blood pressure (antihypertensive effect) ([4]; % of pretreatment basal values)
1 | CC(C)(C)O/N=C(/c1cccc(Br)c1)c1ncccc1O [Compound 1, (Z)-2-(3-bromo-α-t-butoxyiminobenzyl)-3-hydroxypyridine] | 0% | 0% | 6.7 min | 133 % of basal flow | 57% | 59% | – | – | – | – | – | – | – | –
2 | CC(C)(C)O/N=C(/c1cccc(Br)c1)c1c(O)ccc[n+]1[O-] [Compound 3, (Z)-2-(3-bromo-α-t-butoxyiminobenzyl)-3-hydroxypyridine 1-oxide] | – | 0% | 24.4 min | 155 % of basal flow | – | 47% | 2% | 97% | – | – | – | – | – | –
3 | CC(C)(C)O/N=C(/c1ccc(Cl)cc1)c1c(O)ccc[n+]1[O-] [Compound 7, (Z)-2-[α-(t-butoxyimino)-4-chlorobenzyl]-3-hydroxypyridine N-oxide] | – | – | 18.6 min | 71 % of basal flow | – | 2% | 0% | 72% | – | – | – | – | – | –
4 | CC(C)(C)O/N=C(/c1ccc(Cl)c(Cl)c1)c1c(O)ccc[n+]1[O-] [Compound 11, (Z)-2-[α-(t-butoxyimino)-3,4-dichlorobenzyl]-3-hydroxypyridine N-oxide] | – | – | 30.5 min | 66 % of basal flow | – | 49% | 0% | 63% | – | – | – | – | – | –
5 | CC(C)(C)O/N=C(/c1cc(Cl)cc(Cl)c1)c1ncccc1O [Compound 13, (Z)-2-[α-(t-butoxyimino)-3,5-dichlorobenzyl]-3-hydroxypyridine] | – | – | – | – | – | 21% | 4% | 53% | – | – | – | – | – | –
6 | CC(C)(C)O/N=C(/c1ccc(F)c(Br)c1)c1ncccc1O [Compound 16, (Z)-2-(3-bromo-α-t-butoxyimino-4-fluorobenzyl)-3-hydroxypyridine] | 4% | – | 43.5 min | 136 % of basal flow | 87% | – | – | – | no effect | no effect | long duration | little effect | 2 h | 18%
7 | CC(C)(C)O/N=C(/c1cccc(C(F)(F)F)c1)c1ncccc1O [Compound 21, (Z)-2-[α-(t-butoxyimino)-3-trifluoromethylbenzyl]-3-hydroxypyridine] | – | 1% | – | – | – | 45% | 8% | 100% | – | – | – | – | – | –
8 | CC(C)(C)O/N=C(/c1cccc([N+](=O)[O-])c1)c1ncccc1O [Compound 23, (Z)-2-[α-(t-butoxyimino)-3-nitrobenzyl]-3-hydroxypyridine] | – | 0% | 5.3 min | 134 % of basal flow | 4% | 56% | 0% | 76% | – | – | – | – | – | –
9 | CC(C)(C)N/N=C(\c1cccc(Br)c1)c1ncccc1O [Compound 27, (E)-2-(3-bromo-α-t-butylhydrazinobenzyl)-3-hydroxypyridine] | 0% | 0% | 74.6 min | 77 % of basal flow | 25% | 100% | – | – | – | – | – | – | – | –
